Values joined by “and” are separate entries in the source; they are usually repeats but may differ in a detail not shown here. Equal values may be shown once. Marks after values point to notes of the source that are not given here.
How the values were obtained:
[1] = Emission spectra and fluorescence quantum yield; assay type: physicochemical
Procedure: (§1) Absorption spectra were recorded with a Varian Cary 4000 UV-Vis double-beam spectrophotometer (Agilent Technologies, USA). For the determination of the absorption spectra, quartz cells with a 1 cm path length were used. Emission spectra and fluorescence quantum yield were obtained on a Quantaurus-QY Absolute PL quantum yield spectrometer C11347 (Hamamatsu Photonics, Japan) or on a Varian Cary Eclipse fluorescence spectrometer (Agilent Technologies, USA).

[2] = Absorption spectroscopy (UV/Vis); assay type: physicochemical
Procedure: as §1

[3] = in acetonitrile, trifluoroacetate
[4] = in aq. PBS, pH 7.4, trifluoroacetate

Row | Structure (SMILES) | Emission max. ([1]; in aq. PBS, pH 7.4) [nm] | QY (fluorescence quantum yield, Φfl) ([1]; in aq. PBS, pH 7.4) | ε at absorption max. ([2]; in aq. PBS, pH 7.4) | Emission max. ([1]; in acetonitrile) [nm] | QY (fluorescence quantum yield, Φfl) ([1]; in acetonitrile) | Stokes shift ([1]; in acetonitrile) [nm] | Stokes shift ([1]; in aq. PBS, pH 7.4) | Absorption max. ([2]; in acetonitrile) [nm] | ε at absorption max. [2, 3] | Absorption max. ([2]; in aq. PBS, pH 7.4) [nm] | ε at absorption max. [2, 4] | ε at absorption max. ([2]; in acetonitrile)
1 | COP(=O)(OC)c1c2ccc(=[N+](C)C)cc-2oc2cc(N(C)C)ccc12.O=C([O-])C(F)(F)F [Compound 5, 9-(Dimethoxyphosphoryl)-3,6-bis(dimethylamino)-9H-xanthenylium trifluoroacetate] | 667 | 0.16 | 21400 M⁻¹ cm⁻¹ | – | – | – | – | – | – | – | – | –
2 | CC(C)OP(=O)(OC(C)C)c1c2ccc(N(C)C)cc2[o+]c2cc(N(C)C)ccc12.O=C([O-])C(F)(F)F [Compound 6, 9-(Diisopropoxyphosphoryl)-3,6-bis(dimethylamino)-9H-xanthenylium trifluoroacetate] | 668 | 0.12 | – | 649 | 0.38 | 32 | 39 nm | 617 | 57638 M⁻¹ cm⁻¹ and 57600 M⁻¹ cm⁻¹ | 629 | 52254 M⁻¹ cm⁻¹ and 52300 M⁻¹ cm⁻¹ | –
3 | COP(=O)(c1c2ccc(N(C)C)cc2[o+]c2cc(N(C)C)ccc12)N(C(C)C)C(C)C.O=C([O-])C(F)(F)F (centres unmarked) [Compound 7, 9-[(Diisopropylamino)(methoxy)phosphoryl]-3,6-bis(dimethylamino)-9H-xanthenylium trifluoroacetate] | 664 | 0.11 | – | 649 | 0.39 | 33 | 36 nm | 616 | 52455 M⁻¹ cm⁻¹ and 52500 M⁻¹ cm⁻¹ | 628 | 46051 M⁻¹ cm⁻¹ and 46100 M⁻¹ cm⁻¹ | –
4 | CN(C)c1ccc2c(P(=O)(c3ccccc3)c3ccccc3)c3ccc(N(C)C)cc3[o+]c2c1.O=C([O-])C(F)(F)F [Compound 8, 3,6-Bis(dimethylamino)-9-(diphenylphosphoryl)-9H-xanthenylium trifluoroacetate] | 639 | 0.26 | – | 600 | 0.35 | 26 | 38 nm | 574 | – | 601 | – | –
5 | C=CCOC(=O)CCCOP(=O)(OC)[c+]1c2ccc(N(C)C)cc2oc2cc(N(C)C)ccc21 (centres unmarked) [Compound 12, 9-[[4-(Allyloxy)-4-oxobutoxy](methoxy)phosphoryl]-3,6-bis(dimethylamino)-9H-xanthen-9-ylium chloride] | 669 | 0.17 | 29540 M⁻¹ cm⁻¹ | 653 | 0.32 | 32 | 37 nm | 621 | – | 632 | – | 42690 M⁻¹ cm⁻¹ and 42700 M⁻¹ cm⁻¹
6 | CN(C)c1ccc2c([PH](=O)[O-])c3ccc(N(C)C)cc3[o+]c2c1 [Compound 13, [3,6-Bis(dimethylamino)-9H-xanthenylium-9-yl]phosphinate] | 627 | 0.33 | 59543 M⁻¹ cm⁻¹ and 59400 M⁻¹ cm⁻¹ | – | – | – | 37^b nm | – | – | 590 | – | –
7 | CCOP(=O)(CC(=O)[O-])c1c2ccc(N(C)C)cc2[o+]c2cc(N(C)C)ccc12 (centres unmarked) [Compound 14, 2-[[3,6-Bis(dimethylamino)-9H-xanthenylium-9-yl](ethoxy)phosphoryl]acetate] | 667 | 0.22 | 47622 M⁻¹ cm⁻¹ | 656 | 0.32 | 31 | 36 nm | 625 | – | 631 | – | 22599 M⁻¹ cm⁻¹
